Test results reported in PubChem BioAssay (NCI).
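Growth conditions: 96-well plates. Treatment: test compound, 48 hours, 5 concentrations. Analysis: linear interpolation between bracketing concentrations; unreached endpoints set to highest concentration. TGI: concentration producing complete growth inhibition.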

Assays:
Experiment in all cases: DTP human tumour cell line panel, 48 h
PC-3 prostate = test system: PC-3 prostate
HS 578T breast = test system: HS 578T breast
OVCAR-4 ovarian = test system: OVCAR-4 ovarian
SR leukemia = test system: SR leukemia
A549 NSCLC = test system: A549 NSCLC
COLO 205 colon = test system: COLO 205 colon
HOP-62 NSCLC = test system: HOP-62 NSCLC
MDA-MB-435 = test system: MDA-MB-435
DU-145 prostate = test system: DU-145 prostate
LOX IMVI melanoma = test system: LOX IMVI melanoma
UACC-257 melanoma = test system: UACC-257 melanoma
U251 CNS = test system: U251 CNS
KM12 colon = test system: KM12 colon
SNB-75 CNS = test system: SNB-75 CNS
SK-MEL-5 melanoma = test system: SK-MEL-5 melanoma
MCF7 breast = test system: MCF7 breast
SN12C renal = test system: SN12C renal
SW-620 colon = test system: SW-620 colon
IGROV1 ovarian = test system: IGROV1 ovarian
SK-MEL-2 melanoma = test system: SK-MEL-2 melanoma
EKVX NSCLC = test system: EKVX NSCLC
MDA-N = test system: MDA-N
NCI-H23 lung = test system: NCI-H23 lung
NCI/ADR-RES ovarian = test system: NCI/ADR-RES ovarian
SF-295 CNS = test system: SF-295 CNS
CAKI-1 renal = test system: CAKI-1 renal
TK-10 renal = test system: TK-10 renal
ACHN renal = test system: ACHN renal
OVCAR-8 ovarian = test system: OVCAR-8 ovarian
BT-549 breast = test system: BT-549 breast
CCRF-CEM leukemia = test system: CCRF-CEM leukemia
M14 melanoma = test system: M14 melanoma
786-0 renal = test system: 786-0 renal
OVCAR-5 ovarian = test system: OVCAR-5 ovarian
T-47D breast = test system: T-47D breast
HT29 colon = test system: HT29 colon
MOLT-4 leukemia = test system: MOLT-4 leukemia
NCI-H460 lung = test system: NCI-H460 lung
UO-31 renal = test system: UO-31 renal
RXF 393 renal = test system: RXF 393 renal
SK-OV-3 ovarian = test system: SK-OV-3 ovarian
HCT-15 colon = test system: HCT-15 colon
NCI-H522 lung = test system: NCI-H522 lung
RPMI-8226 leukemia = test system: RPMI-8226 leukemia
UACC-62 melanoma = test system: UACC-62 melanoma
MALME-3M melanoma = test system: MALME-3M melanoma
SK-MEL-28 melanoma = test system: SK-MEL-28 melanoma
HCT-116 colon = test system: HCT-116 colon

Measured: TGI

CCOC(=O)CCC(NC(=O)OCc1ccccc1)C(=O)NC(CCC(=O)OCC)C(=O)NC(CCC(=O)OCC)C(=O)NC(CCC(=O)OCC)C(=O)NC(CCC(=O)OCC)C(=O)OCC (stereo not drawn)
> 100 µM: all assays above
